Results as given in patent publication US8247211B2, “Glycopeptide antibiotics” (American Cyanamid Company, priority 2001, dated 2012).
Values after ≈ are worked out from the molar mass of the structure shown.

Tests used:
Assay in all cases: In vitro antibacterial evaluation: minimum inhibitory concentration (MIC), broth dilution method
Assay type in all cases: cell-based
Enterococcus sp. = conditions: broth dilution, 18 hours at 35° C.
Outline: (§1)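 NCCLS M7-A2 broth dilution; Muller-Hinton II […]; 5×10^5 CFU/mL; 64-0.06 μg/mL. MIC = lowest concentration with no growth.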

Staphylococcus sp. = conditions: strain SMITH GC 4543; broth dilution, 18 hours at 35° C.
Outline: as §1

Streptococcus sp. = conditions: broth dilution, 18 hours at 35° C.
Outline: as §1

Escherichia coli = conditions: broth dilution, 18 hours at 35° C.
[1] = Enterococcus faecalis (ATCC 29212)
[2] = Enterococcus faecalis (GC 2242)
[3] = Enterococcus faecalis (GC 2691)
[4] = Enterococcus faecalis (GC 3059)
[5] = Enterococcus faecalis (GC 4552)
[6] = Enterococcus faecalis (GC 4553)
[7] = Enterococcus faecalis (GC 4554)
[8] = Enterococcus faecalis (GC 6189)
[9] = Streptococcus agalactiae (GC 4564)
[10] = Streptococcus pneumoniae (ATCC 6301)
[11] = Streptococcus pneumoniae (GC 1894)
[12] = Streptococcus pneumoniae (GC 4565)
[13] = Streptococcus pyogenes (GC 4563)

Structure (SMILES)	MIC Enterococcus avium (GC 4558) (Enterococcus sp.; Enterococcus avium (GC 4558))	MIC Enterococcus faecalis (ATCC 29212) (Enterococcus sp.; [1])	MIC Enterococcus faecalis (GC 2242) (Enterococcus sp.; [2])	MIC Enterococcus faecalis (GC 2691) (Enterococcus sp.; [3])	MIC Enterococcus faecalis (GC 3059) (Enterococcus sp.; [4])	MIC Enterococcus faecalis (GC 4552) (Enterococcus sp.; [5])	MIC Enterococcus faecalis (GC 4553) (Enterococcus sp.; [6])	MIC Enterococcus faecalis (GC 4554) (Enterococcus sp.; [7])	MIC Enterococcus faecalis (GC 6189) (Enterococcus sp.; [8])	MIC Enterococcus faecium (GC 2243) (Enterococcus sp.; Enterococcus faecium (GC 2243))	MIC Enterococcus faecium (GC 4556) (Enterococcus sp.; Enterococcus faecium (GC 4556))	MIC Enterococcus faecium (GC 4557) (Enterococcus sp.; Enterococcus faecium (GC 4557))	MIC Enterococcus avium (GC 4558) (Enterococcus sp.)	MIC Enterococcus faecalis (ATCC 29212) (Enterococcus sp.)	MIC Enterococcus faecalis (GC 2242) (Enterococcus sp.)	MIC Enterococcus faecalis (GC 2691) (Enterococcus sp.)	MIC Enterococcus faecalis (GC 3059) (Enterococcus sp.)	MIC Enterococcus faecalis (GC 4552) (Enterococcus sp.)	MIC Enterococcus faecalis (GC 4553) (Enterococcus sp.)	MIC Enterococcus faecalis (GC 4554) (Enterococcus sp.)	also measured
CC(c1ccccc1)C1NC(=O)CNC(=O)C(CO)NC(=O)C(C(O)C2CNC(=N)N2C2OC(CO)C(O)C(O)C2O)NC(=O)C(C(O)C2CNC(=N)N2)NC(=O)C(Cc2ccc3oc(-c4ccc(Br)cc4)nc3c2)NC1=O (stereo not drawn) [Example 27, Cyclo[3-[2-(4-bromaphenyl)-1,3-benzoxazol-5-yl]alanyl-3-(2-iminoimidazolidin-4-yl)seryl-3-(3-hexopyranosyl-2-iminoimidazolidin-4-yl)serylserylglycyl-β-methylphenylalanyl]]	16 mg/L (≈ 13.9 µM)	32 mg/L (≈ 27.8 µM)	32 mg/L (≈ 27.8 µM)	32 mg/L (≈ 27.8 µM)	32 mg/L (≈ 27.8 µM)	64 mg/L (≈ 55.6 µM)	16 mg/L (≈ 13.9 µM)	32 mg/L (≈ 27.8 µM)	32 mg/L (≈ 27.8 µM)	32 mg/L (≈ 27.8 µM)	64 mg/L (≈ 55.6 µM)	8 mg/L (≈ 6.95 µM)	16 mg/L (≈ 13.9 µM)	32 mg/L (≈ 27.8 µM)	32 mg/L (≈ 27.8 µM)	32 mg/L (≈ 27.8 µM)	32 mg/L (≈ 27.8 µM)	64 mg/L (≈ 55.6 µM)	16 mg/L (≈ 13.9 µM)	32 mg/L (≈ 27.8 µM)	MIC Enterococcus faecalis (GC 6189) (Enterococcus sp.): 32 mg/L (≈ 27.8 µM); MIC Enterococcus faecium (GC 2243) (Enterococcus sp.): 32 mg/L (≈ 27.8 µM); MIC Enterococcus faecium (GC 4556) (Enterococcus sp.): 64 mg/L (≈ 55.6 µM); MIC Enterococcus faecium (GC 4557) (Enterococcus sp.): 8 mg/L (≈ 6.95 µM); MIC Staphylococcus aureus-SMITH (GC 4543) (Staphylococcus sp.): 8 mg/L (≈ 6.95 µM); MIC Streptococcus agalactiae (GC 4564) (Streptococcus sp.; [9]): 32 mg/L (≈ 27.8 µM); MIC Streptococcus pneumoniae (ATCC 6301) (Streptococcus sp.; [10]): 16 mg/L (≈ 13.9 µM); MIC Streptococcus pneumoniae (GC 1894) (Streptococcus sp.; [11]): 32 mg/L (≈ 27.8 µM); MIC Streptococcus pneumoniae (GC 4565) (Streptococcus sp.; [12]): 16 mg/L (≈ 13.9 µM); MIC Streptococcus pyogenes (GC 4563) (Streptococcus sp.; [13]): 8 mg/L (≈ 6.95 µM); MIC Streptococcus agalactiae (GC 4564) (Streptococcus sp.): 32 mg/L (≈ 27.8 µM); MIC Streptococcus pneumoniae (ATCC 6301) (Streptococcus sp.): 16 mg/L (≈ 13.9 µM); MIC Streptococcus pneumoniae (GC 1894) (Streptococcus sp.): 32 mg/L (≈ 27.8 µM); MIC Streptococcus pneumoniae (GC 4565) (Streptococcus sp.): 16 mg/L (≈ 13.9 µM); MIC Streptococcus pyogenes (GC 4563) (Streptococcus sp.): 8 mg/L (≈ 6.95 µM); MIC Escherichia coli (ATCC 25922) (Escherichia coli): 32 mg/L (≈ 27.8 µM); MIC Escherichia coli (GC 4559) (Escherichia coli): 32 mg/L (≈ 27.8 µM); MIC Escherichia coli (GC 4560) (Escherichia coli): 8 mg/L (≈ 6.95 µM)
CC(c1ccccc1)C1NC(=O)CNC(=O)C(CO)NC(=O)C(C(O)C2CNC(=N)N2C2OC(CO)C(O)C(O)C2O)NC(=O)C(C(O)C2CNC(=N)N2)NC(=O)C(Cc2ccc3oc(-c4ccc(N(C)C)cc4)nc3c2)NC1=O (stereo not drawn) [Example 29, Cyclo[3-[2-[4-(dimethylamino)phenyl]-1,3-benzoxazol-5-yl]alanyl-3-(2-iminoimidazolidin-4-yl)-seryl-3-(3-hexopyranosyl-2-iminoimidazolidin-4-yl)serylserylglycyl-β-methylphenyl-alanyl]]	16 mg/L (≈ 14.3 µM)	32 mg/L (≈ 28.7 µM)	32 mg/L (≈ 28.7 µM)	32 mg/L (≈ 28.7 µM)	64 mg/L (≈ 57.4 µM)	64 mg/L (≈ 57.4 µM)	16 mg/L (≈ 14.3 µM)	32 mg/L (≈ 28.7 µM)	32 mg/L (≈ 28.7 µM)	16 mg/L (≈ 14.3 µM)	64 mg/L (≈ 57.4 µM)	8 mg/L (≈ 7.17 µM)	16 mg/L (≈ 14.3 µM)	32 mg/L (≈ 28.7 µM)	32 mg/L (≈ 28.7 µM)	32 mg/L (≈ 28.7 µM)	64 mg/L (≈ 57.4 µM)	64 mg/L (≈ 57.4 µM)	16 mg/L (≈ 14.3 µM)	32 mg/L (≈ 28.7 µM)	MIC Enterococcus faecalis (GC 6189) (Enterococcus sp.): 32 mg/L (≈ 28.7 µM); MIC Enterococcus faecium (GC 2243) (Enterococcus sp.): 16 mg/L (≈ 14.3 µM); MIC Enterococcus faecium (GC 4556) (Enterococcus sp.): 64 mg/L (≈ 57.4 µM); MIC Enterococcus faecium (GC 4557) (Enterococcus sp.): 8 mg/L (≈ 7.17 µM); MIC Staphylococcus aureus-SMITH (GC 4543) (Staphylococcus sp.): 8 mg/L (≈ 7.17 µM); MIC Streptococcus agalactiae (GC 4564) (Streptococcus sp.; [9]): 32 mg/L (≈ 28.7 µM); MIC Streptococcus pneumoniae (ATCC 6301) (Streptococcus sp.; [10]): 32 mg/L (≈ 28.7 µM); MIC Streptococcus pneumoniae (GC 1894) (Streptococcus sp.; [11]): 32 mg/L (≈ 28.7 µM); MIC Streptococcus pneumoniae (GC 4565) (Streptococcus sp.; [12]): 32 mg/L (≈ 28.7 µM); MIC Streptococcus pyogenes (GC 4563) (Streptococcus sp.; [13]): 16 mg/L (≈ 14.3 µM); MIC Streptococcus agalactiae (GC 4564) (Streptococcus sp.): 32 mg/L (≈ 28.7 µM); MIC Streptococcus pneumoniae (ATCC 6301) (Streptococcus sp.): 32 mg/L (≈ 28.7 µM); MIC Streptococcus pneumoniae (GC 1894) (Streptococcus sp.): 32 mg/L (≈ 28.7 µM); MIC Streptococcus pneumoniae (GC 4565) (Streptococcus sp.): 32 mg/L (≈ 28.7 µM); MIC Streptococcus pyogenes (GC 4563) (Streptococcus sp.): 16 mg/L (≈ 14.3 µM); MIC Escherichia coli (ATCC 25922) (Escherichia coli): 16 mg/L (≈ 14.3 µM); MIC Escherichia coli (GC 4559) (Escherichia coli): 16 mg/L (≈ 14.3 µM); MIC Escherichia coli (GC 4560) (Escherichia coli): 4 mg/L (≈ 3.59 µM)
